Patent US20240269139A1, “COMPOUNDS FOR TARGETED PROTEIN DEGRADATION OF KINASES” (DANA-FARBER CANCER INSTITUTE, INC., priority 2020, published 2024)
Read-outs that look alike come from different tables or passages of the source.

Tests used:
[1] = target: protein kinases (human kinome) (Homo sapiens, UniProt Q8NI60); format: cell-based
[2] = target: protein kinases (human kinome) (Homo sapiens, UniProt Q00537); format: cell-based; conditions: for logFC of CDK17: Accession Q00537; for logFC CDK17 (Q00537): direction of change down
Sequence of protein kinases (human kinome) (Homo sapiens, UniProt Q00537) (Q00537 whole entry): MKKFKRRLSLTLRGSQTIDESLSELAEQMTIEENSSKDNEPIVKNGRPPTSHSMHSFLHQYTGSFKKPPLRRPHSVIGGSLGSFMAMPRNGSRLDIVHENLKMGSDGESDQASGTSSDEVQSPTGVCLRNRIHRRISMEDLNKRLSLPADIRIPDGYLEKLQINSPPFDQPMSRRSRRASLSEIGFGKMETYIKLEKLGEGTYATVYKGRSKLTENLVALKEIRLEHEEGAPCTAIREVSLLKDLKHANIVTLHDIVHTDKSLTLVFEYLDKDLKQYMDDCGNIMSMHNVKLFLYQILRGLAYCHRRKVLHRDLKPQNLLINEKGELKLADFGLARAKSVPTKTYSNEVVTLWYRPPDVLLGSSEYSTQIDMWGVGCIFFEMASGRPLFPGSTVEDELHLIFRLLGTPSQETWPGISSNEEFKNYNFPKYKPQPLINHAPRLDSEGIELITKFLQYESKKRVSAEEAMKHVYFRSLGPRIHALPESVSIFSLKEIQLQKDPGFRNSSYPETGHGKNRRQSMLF

Sequence of protein kinases (human kinome) (Homo sapiens, UniProt Q8NI60) (Q8NI60 163-647): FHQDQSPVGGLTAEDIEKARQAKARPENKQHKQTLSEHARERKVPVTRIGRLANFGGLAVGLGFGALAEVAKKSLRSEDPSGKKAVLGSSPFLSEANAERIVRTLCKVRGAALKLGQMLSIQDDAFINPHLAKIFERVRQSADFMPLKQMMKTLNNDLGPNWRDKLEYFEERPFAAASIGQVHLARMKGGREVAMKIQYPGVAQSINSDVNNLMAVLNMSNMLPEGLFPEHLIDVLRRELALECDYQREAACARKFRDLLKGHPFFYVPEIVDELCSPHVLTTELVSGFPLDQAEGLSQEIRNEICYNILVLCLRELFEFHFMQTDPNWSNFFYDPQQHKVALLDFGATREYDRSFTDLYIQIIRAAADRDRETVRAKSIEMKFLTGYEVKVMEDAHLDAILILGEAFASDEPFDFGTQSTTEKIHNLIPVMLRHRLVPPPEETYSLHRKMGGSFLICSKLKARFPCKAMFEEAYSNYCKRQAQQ

| Compound | logFC COQ8A (Q8N160-1) ([1]; experiment wp147, 1 uM) | logFC COQ8A (Q8NI60-1) ([1]; experiment wp147, 1 uM) | logFC COQ8A (Q8N160-1) ([1]; experiment wp147, 4 uM) | logFC COQ8A (Q8NI60-1) ([1]; experiment wp147, 4 uM) | logFC of CDK17 ([2]; experiment wp047) | logFC of CDK17 ([2]; experiment wp147, 1 uM) | logFC of CDK17 ([2]; experiment wp147, 4 uM) | logFC CDK17 (Q00537) ([2]; experiment wp047) | logFC CDK17 (Q00537) ([2]; experiment wp147, 1 uM) | logFC CDK17 (Q00537) ([2]; experiment wp147, 2 uM) | logFC CDK17 (Q00537) ([2]; experiment wp147, 4 uM) | logFC COQ8A (Q8N160-1) ([1]; experiment wp147, 2 uM) | logFC COQ8A (Q8NI60-1) ([1]; experiment wp147, 2 uM) | logFC COQ8A (Q8N160-1) ([1]; experiment wp056) | logFC COQ8A (Q8NI60-1) ([1]; experiment wp056) | logFC COQ8A (Q8N160-1) ([1]; experiment wp118) | logFC COQ8A (Q8NI60-1) ([1]; experiment wp118) |
| --- | --- | --- | --- | --- | --- | --- | --- | --- | --- | --- | --- | --- | --- | --- | --- | --- | --- |
| CC(C)(C)c1nc(-c2cccc(NS(=O)(=O)c3c(F)cccc3F)c2F)c(-c2ccnc(NCCOCCNC(=O)CCOCCOCCNc3cccc4c3C(=O)N(C3CCC(=O)NC3=O)C4=O)n2)s1 (stereo not drawn) [DD.03.106] | −0.3548 | −0.3548 | −0.8159 | −0.8159 | −0.72 | −0.7615 | −0.6232 | −0.72 | −0.7615 | −0.8288 | −0.6232 |  |  |  |  |  |  |
| CC(C)(C)c1nc(-c2cccc(NS(=O)(=O)c3c(F)cccc3F)c2F)c(-c2ccnc(NCCOCCNC(=O)CCOCCOCCNc3cccc4c3CN(C3CCC(=O)NC3=O)C4=O)n2)s1 (stereo not drawn) [DD.03.107] | −0.6678 | −0.6678 | −1.121 | −1.121 |  |  |  |  |  |  |  | −0.6288 | −0.6288 |  |  |  |  |
| C=CCn1c(=O)c2cnc(Nc3ccc(N4CCN(CCCNc5cccc6c5C(=O)N(C5CCC(=O)NC5=O)C6=O)CC4)cc3)nc2n1-c1cccc(C(C)(C)O)n1 (stereo not drawn) [ZNL.02.096] |  |  |  |  |  |  |  |  |  |  |  |  |  | −0.4317 | −0.4317 | −0.423 | −0.423 |
